What was measured:
NFKBIZ mRNA [1] = test: NFKBIZ mRNA expression by RT-qPCR in IL-36-stimulated HaCaT cells; format: cell-based, human; settings: IL-36-stimulated (100 ng/ml, 2 h) HaCaT cells, nanomicelles with 10 μM ASONFKBIZ-h, 6 h + 48 h
Method: HaCaT cells from human keratinocyte cell line were inoculated in a 6-well plate at a density of 1×10^5 cells/well and cultured until adherence. The cells were then stimulated with 100 ng/ml interleukin-36 (IL-36) for 2 h. After washing with 1×PBS buffer, 1 mL of Opti-MEM medium containing ASONFKBIZ-h+Lipo2000 complex and CsA3-ASONFKBIZ-h nanomicelles (all containing 10 μM ASONFKBIZ-h) were added, respectively. After incubation with HaCaT cells for 6 h, the cells were transferred into fresh DMEM medium, while cells without any treatment or stimulated with IL-36 alone were used as a control, all cells were incubated at 37° C. for 48 h. The cells were collected and RNA was extracted for RT-qPCR to analyze the expression level of the NFKBIZ mRNA in HaCaT cells, and experimental results were shown in FIG. 51.
HaCaT cells from human keratinocyte cell line were inoculated in a 6-well plate at a density of 1×10^5 cells/well and cultured until adherence. The cells were then stimulated with 100 ng/ml interleukin-36 (IL-36) for 2 h. After washing with 1×PBS buffer, 1 mL of Opti-MEM medium containing ASONFKBIZ-h+Lipo2000 complex and 10TA-ASONFKBIZ-h nanomicelles (all containing 10 μM ASONFKBIZ-h) were added, respectively. […]

NFKBIZ mRNA [2] = test: NFKBIZ mRNA expression by RT-qPCR in LPS-stimulated HCECs; format: cell-based, human; settings: LPS-stimulated (100 ng/mL) HCECs, 10 μM ASO or siRNA, without transfection reagent, 6 h + 48 h
Method: HCECs were inoculated in a 6-well plate at a density of 1×10^5 cells/well and cultured until adherence. The cells were then stimulated with 100 ng/mL lipopolysaccharide (LPS) overnight. After removing the supernatant, 1 mL of Opti-MEM medium containing ASONFKBIZ-h, ASONFKBIZ-h+Lipofectamine2000 (Lipo2000), and CsA-ASONFKBIZ-h (all containing 10 µM ASO) were added, respectively. Cells without any treatment were used as a blank reference (Mock). After incubation at 37° C. for 6 h, the cells were transferred into DMEM medium and incubated for another 48 h. The cells were collected and RNA was extracted for RT-qPCR to analyze the expression level of the NFKBIZ mRNA in HCECs, and experimental results were shown in FIG. 9. The expression level of NFKBIZ mRNA in HCECs after LPS stimulation was about 1.3 times that of normal cells. […] After adding CsA-ASONFKBIZ-h for co-incubation, the expression of NFKBIZ mRNA was reduced to about 0.8 times that of normal cells.
(§1) HCECs were inoculated in a 6-well plate at a density of 1×10^5 cells/well and cultured until adherence. The cells were then stimulated with 100 ng/mL LPS overnight. After removing the supernatant, 1 mL of Opti-MEM medium containing ASONFKBIZ-h+Lipo2000 complex and 2CsA-ASONFKBIZ-h nanomicelles (all containing 10 µM ASO) were added, respectively. After incubation at 37° C. for 6 h, the cells were transferred into DMEM medium and incubated for another 48 h. The cells were collected and RNA was extracted for RT-qPCR to analyze the expression level of the NFKBIZ mRNA in HCECs, and experimental results were shown in FIG. 12.
as §1, with “ng/ml” for “ng/mL”, “3CsA-ASONFKBIZ-h” for “2CsA-ASONFKBIZ-h”, “15.” for “12.”
HCECs were inoculated in a 6-well plate at a density of 1×10^5 cells/well and cultured until adherence. The cells were then stimulated with 100 ng/mL LPS overnight. 1 mL of Opti-MEM medium containing ASONFKBIZ-h+Lipo2000 complex and CsA3-ASONFKBIZ-h nanomicelles (all containing 10 µM ASO) were added, respectively. After incubation at […]. 37° C. for 6 h, the cells were transferred into DMEM medium and incubated for another 48 h. After collected and RNA was extracted for RT-qPCR to evaluate the expression level of NFKBIZ mRNA in HCECs, and the experimental results were shown in FIG. 23.
HCECs were inoculated in a 6-well plate at a density of 1×10^5 cells/well and cultured overnight until adherence. The cells were then stimulated with 100 ng/ml LPS for 12 h. After removing the supernatant, 1 mL of Opti-MEM medium containing siRNANFKBIZ-h+Lipo2000 complex and nCsA-siRNANFKBIZ-h (n=1, 2, 3) conjugates and nanomicelles (all containing 10 μM siRNA) were added, respectively. After incubation at 37° C. for 6 h, the cells were transferred into DMEM medium and incubated for another 48 h. The cells were collected and RNA was extracted for RT-qPCR to evaluate the expression of NFKBIZ mRNA in HCECs, and experimental results were shown in FIG. 27. […]

With “CsA3-ASONFKBIZ-h: CsA trimer on tripropargyl linker at 3′ end of ASO targeting human NFKBIZ (SEQ ID NO: 7) (ATCAGACAACGAATCGGGC; 3'-NHS ASO with tripropargyl linker carrying three cyclosporin A, chemistry not given here, further chemistry not given here)” the “NFKBIZ mRNA expression relative to normal cells” value (NFKBIZ mRNA [1]) was “about 0.8 times” and the “expression of NFKBIZ mRNA relative to normal cells” value (NFKBIZ mRNA [2]) was “about 0.5 times that of normal cells”.
